# From ChEMBL document CHEMBL6120969, “Distinctive Immune Signatures Driven by Structural Alterations in Desmuramylpeptide NOD2 Agonists” (J Med Chem, 2024)
# Activity calls are given as the source filed them. The calls are words filed in the database; no cut-off is given here.
# What was measured:
# [1] = test system: PBMC; experiment: Immunomodulatory activity in human PBMC cells assessed as increase in TNF-alpha level at 2 uM incubated for 18 hrs y flow cytometry analysis; format: functional, cell-based
# How it was run: (§1)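 For 18 h at 37 °C, 5% CO2, human donor PBMCs at 1 × 10^6 cells/mL were incubated without LPS in the presence of 2 μM compound or 0.1% DMSO vehicle. Cytokines were then quantified in cell-free supernatants by flow cytometry with a LEGENDplex human immune response panel, using the kit's recombinant standards. Four independent replicates were analysed by two-way ANOVA and Tukey's test.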
# [2] = test system: PBMC; experiment: Cytotoxicity against human PBMC cells co-cultured with human K562 cells at 10 uM incubated for 4 hrs; format: functional, cell-based
# How it was run: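 Human PBMCs (4 × 10^5/well, 96-well) were pretreated 18 h with compounds at 10 μM (vehicle 0.1% DMSO). CFSE-stained K562 cells (1 × 10^4/well; effector:target 40:1) were then added for 4 h at 37 °C, 5% CO2. Cells were stained with Sytox blue and analysed on an Attune NxT flow cytometer. Killing was read as CFSE+ Sytox blue+ K562 cells. Duplicates, three independent biological replicates; one-way ANOVA with Dunnett's test.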
# [3] = test system: BMDC; experiment: Adjuvant activity in OVA-immunized C57BL/6J mouse BMDC cells co-cultured with mouse CD4+ T cells assessed as increase in IL-9 level at 10 uM incubated for 18 hrs; format: functional, cell-based
# [4] = Cytotoxicity against human HEK-Blue hNOD2 cells assessed as metabolic activity at 10 uM incubated for 18 hes by MTT assay; format: toxicity, cell-based; conditions: hek-blue hnod2, 10 µM
# [5] = test system: PBMC; experiment: Immunomodulatory activity in human PBMC cells assessed as increase in IL-17A level at 2 uM incubated for 18 hrs y flow cytometry analysis; format: functional, cell-based; how it was run: as §1
# [6] = test system: PBMC; experiment: Immunomodulatory activity in human PBMC cells assessed as increase in LPS-induced MCP-1 level at 2 uM incubated for 18 hrs y flow cytometry analysis; format: functional, cell-based
# How it was run: (§2)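 Human donor PBMCs (Ficoll-Paque; 1 × 10^6 cells/mL, 500 μL, 48-well plates) were treated with compounds at 2 μM or 0.1% DMSO vehicle in the presence of LPS (10 ng/mL) for 18 h at 37 °C, 5% CO2. Cytokines in cell-free supernatants were quantified with the LEGENDplex Human Essential Immune Response Panel on a flow cytometer against kit recombinant standard curves. Four independent replicates; two-way ANOVA with Tukey's test.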
# [7] = test system: PBMC; experiment: Immunomodulatory activity in human PBMC cells assessed as increase in IL-6 level at 2 uM incubated for 18 hrs y flow cytometry analysis; format: functional, cell-based; how it was run: as §1
# [8] = test system: BMDC; experiment: Adjuvant activity in OVA-immunized C57BL/6J mouse BMDC cells assessed as increase in CD4+ T cell activation incubated for 18 hrs; format: functional, cell-based
# How it was run: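 After an 18 h pretreatment with compounds at 10 μM plus 50 μg/mL ovalbumin, bone-marrow-derived dendritic cells from C57BL/6 mice (grown 7 days with GM-CSF) were washed and plated at 1 × 10^4/well with 5 × 10^4 CFSE-labelled OT II CD4+ T cells for 72 h at 37 °C, 5% CO2. Flow cytometry measured activation of live Thy1.2+/CD4+ cells by CFSE dilution and CD25 expression, with duplicates in two independent biological replicates compared by paired t tests.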
# [9] = test system: PBMC; experiment: Immunomodulatory activity in human PBMC cells assessed as increase in LPS-induced IP-10 level at 2 uM incubated for 18 hrs y flow cytometry analysis; format: functional, cell-based; how it was run: as §2
# [10] = Anti-inflammatory activity in human PBMC cells assessed as increase in percentage of non classical monocytes at 10 uM incubated for 18 hrs by flow cytometry analysis; format: functional
# [11] = test system: PBMC; experiment: Immunomodulatory activity in human PBMC cells assessed as increase in MCP-1 level at 2 uM incubated for 18 hrs y flow cytometry analysis; format: functional, cell-based; how it was run: as §1
# [12] = test system: PBMC; experiment: Immunomodulatory activity in human PBMC cells assessed as increase in IL-10 level at 2 uM incubated for 18 hrs y flow cytometry analysis; format: functional, cell-based; how it was run: as §1
# [13] = Anti-inflammatory activity in human PBMC cells assessed as increase in percentage of classical monocytes at 10 uM incubated for 18 hrs by flow cytometry analysis; format: functional
# [14] = Anti-inflammatory activity in human PBMC cells assessed as increase in percentage of intermediate monocytes at 10 uM incubated for 18 hrs by flow cytometry analysis; format: functional
# [15] = test system: PBMC; experiment: Immunomodulatory activity in human PBMC cells assessed as increase in TGF-beta1 level at 2 uM incubated for 18 hrs y flow cytometry analysis; format: functional, cell-based; how it was run: as §1
# [16] = test system: PBMC; experiment: Immunomodulatory activity in human PBMC cells assessed as increase in IL-8 level at 2 uM incubated for 18 hrs y flow cytometry analysis; format: functional, cell-based; how it was run: as §1
# [17] = test system: BMDC; experiment: Adjuvant activity in OVA-immunized C57BL/6J mouse BMDC cells co-cultured with mouse CD4+ T cells assessed as increase in IL-2 level at 10 uM incubated for 18 hrs; format: functional, cell-based
# [18] = test system: PBMC; experiment: Immunomodulatory activity in human PBMC cells assessed as increase in LPS-induced IL-10 level at 2 uM incubated for 18 hrs y flow cytometry analysis; format: functional, cell-based; how it was run: as §2
# [19] = test system: PBMC; experiment: Immunomodulatory activity in human PBMC cells assessed as increase in IL-1beta level at 2 uM incubated for 18 hrs y flow cytometry analysis; format: functional, cell-based; how it was run: as §1
# [20] = test system: PBMC; experiment: Immunomodulatory activity in human PBMC cells assessed as increase in IL-2 level at 2 uM incubated for 18 hrs y flow cytometry analysis; format: functional, cell-based; how it was run: as §1
# [21] = test system: PBMC; experiment: Immunomodulatory activity in human PBMC cells assessed as increase in IFN-gamma level at 2 uM incubated for 18 hrs y flow cytometry analysis; format: functional, cell-based; how it was run: as §1
# [22] = test system: PBMC; experiment: Immunomodulatory activity in human PBMC cells assessed as increase in LPS-induced IL-6 level at 2 uM incubated for 18 hrs y flow cytometry analysis; format: functional, cell-based; how it was run: as §2
# [23] = test system: PBMC; experiment: Immunomodulatory activity in human PBMC cells assessed as increase in LPS-induced IFN-gamma level at 2 uM incubated for 18 hrs y flow cytometry analysis; format: functional, cell-based
# [24] = test system: PBMC; experiment: Immunomodulatory activity in human PBMC cells assessed as increase in LPS-induced IL-1beta level at 2 uM incubated for 18 hrs y flow cytometry analysis; format: functional, cell-based
# [25] = test system: PBMC; experiment: Immunomodulatory activity in human PBMC cells assessed as increase in LPS-induced TNF-alpha level at 2 uM incubated for 18 hrs y flow cytometry analysis; format: functional, cell-based
# [26] = test system: PBMC; experiment: Immunomodulatory activity in human PBMC cells assessed as increase in LPS-induced IL-12p70 level at 2 uM incubated for 18 hrs y flow cytometry analysis; format: functional, cell-based
# [27] = test system: PBMC; experiment: Immunomodulatory activity in human PBMC cells assessed as increase in IL-4 level at 2 uM incubated for 18 hrs y flow cytometry analysis; format: functional, cell-based; how it was run: as §1
# [28] = test system: BMDC; experiment: Adjuvant activity in OVA-immunized C57BL/6J mouse BMDC cells co-cultured with mouse CD4+ T cells assessed as increase in IL-6 production at 10 uM incubated for 18 hrs by flow cytometry analysis; format: functional, cell-based
# [29] = test system: PBMC; experiment: Immunomodulatory activity in human PBMC cells assessed as increase in IL-12p70 level at 2 uM incubated for 18 hrs y flow cytometry analysis; format: functional, cell-based; how it was run: as §1
# [30] = test system: PBMC; experiment: Immunomodulatory activity in human PBMC cells assessed as increase in IP-10 level at 2 uM incubated for 18 hrs y flow cytometry analysis; format: functional, cell-based; how it was run: as §1
# [31] = test system: BMDC; experiment: Adjuvant activity in OVA-immunized C57BL/6J mouse BMDC cells co-cultured with mouse CD8+ T cells assessed as increase in IL-9 production at 10 uM incubated for 18 hrs by flow cytometry analysis; format: functional, cell-based
# [32] = Cytotoxicity against human PBMC cells at 10 uM incubated for 4 hrs; format: toxicity, cell-based
# How it was run: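 Direct cytotoxicity toward human PBMCs alone was taken as the Sytox blue-positive cell population, measured by flow cytometry on an Attune NxT with FlowJo analysis. Compound exposure was at 10 μM with 0.1% DMSO vehicle, in parallel with a K562 killing assay. Data came from duplicates in three independent biological replicates, compared by one-way ANOVA with Dunnett's test.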
compound,measurement,setting,value
CCOC(=O)CC[C@@H](NC(=O)[C@@H](NC(=O)CNC(=O)/C=C/c1ccc(OC(=O)CO[C@H]2CC[C@@]3(C)C(=CC[C@H]4[C@@H]5CC[C@H]([C@H](C)CCCC(C)C)[C@@]5(C)CC[C@@H]43)C2)c(OC)c1)C(C)C)C(=O)OCC,Activity,[1],Active
same,Activity,[2],Active
same,Activity,[3],Active
same,Activity,[4],Non-toxic
same,Activity,[5],Active
same,Activity,[6],Active
same,Activity,[7],Active
same,Activity,[8],Active
same,Activity,[9],Active
same,Activity,[10],76.6%
same,Activity,[11],Active
same,Activity,[12],Active
same,Activity,[13],0.35%
same,Activity,[14],4.53%
same,Activity,[15],Active
same,Activity,[16],Active
same,Activity,[17],Active
same,Activity,[18],Active
same,Activity,[19],Active
same,Activity,[20],Active
same,Activity,[21],Active
same,Activity,[22],Active
same,Activity,[23],Active
same,Activity,[24],Active
same,Activity,[25],Active
same,Activity,[26],Active
same,Activity,[27],Active
same,Activity,[28],Active
same,Activity,[29],Active
same,Activity,[30],Active
same,Activity,[31],Active
same,Activity,[32],Moderate_effect
